Twelve molecules from article PMC12833874 (Journal of Medicinal Chemistry, 2025) can be followed below.

The structures appear in SMILES notation. Read-outs that look alike come from different tables or passages of the source. A value given as a limit tells only on which side of the number the result lay.

The target in experiment [1] is T1, NOPr (Homo sapiens, UniProt P41146). Put plainly: BRET G-protein activation (GPA) assay, Gαi2, agonist and antagonist mode, Flp-In-NOPr-CHO cells. Format: cell-based. Conditions: for reduction in inhibitory potency from N-Boc congener to fluorescent ligand: 11g to 13g, 11h to 13h and 14h.
Description: The functional activity of congeners 11a-h was assessed in a bioluminescence resonance energy transfer (BRET) assay measuring NOPr activation of the Gαi2 G protein through release of Gβγ subunits in Flp-In-NOPr-Chinese hamster ovary (CHO) cells, as summarized in Figure a.
Data represent the mean ± SEM of n = 4 experiments performed in duplicate. (a) Illustrative representation of the GPA assayligand-induced receptor activation causes G protein dissociation, releasing a Venus-tagged Gβγ (acceptor) to interact with a membrane-localized c-terminus of G protein-coupled receptor kinase 3 (masGRK3ct) fused to a renilla luciferase enzyme (RLuc8) (donor). […] After a 10 min incubation with the R-Luc substrate coelenterazine and NOPr ligands, luminescence was measured to quantify GPA as a BRET ratio between acceptor λem 535 nm/donor λem 475 nm.
Flp-In CHO cells stably expressing SNAP-NOPr were transiently transfected with Gαi2 (2 μg), Gβ1-Venus (156–259)­(1 μg), Gγ2-Venus­(1–155)­(1 μg), and masGRK3ct-RLuc8 (1 μg) using polyethylenimine (PEI) in a 1:6 DNA/PEI ratio. The mixture was suspended in sterile NaCl, vortexed, and then incubated (10 min, RT), before being added to the cells in fresh antibiotic media DMEM (7 mL) supplemented with 10% FBS (v/v) and penicillin (50 units·mL^–1)- streptomycin (50 μg.mL^–1).
Cells were then incubated with coelenterazine H (NanoLight Technology) (10 μL/well, 50 μM, 5 min, RT) before ligands were added to the 96-well plate with final ligand concentrations ranging from (10 μM-0.01 nM). […] Cells were incubated in the plate reader, and luminescence was read using dual emission detection at 475 nm (Rluc8 Donor) and 535 nm emission (BRET signal) at 10 and 30 min. Plates were read on a PHERAstar (BMG Lab Tech), and data were exported through MARS and analyzed using Prism (GraphPad, Version 10).
A further experiment concerns the target T2, SNAP-NOPr (Homo sapiens, UniProt P41146).
T2 construct: expressed in transfected cells
In words: Confocal imaging of fluorescent ligand binding, live FlpIn CHO cells stably expressing SNAP-NOPr. The class given is cell-based. The note with it: for fluorescent ligand binding (confocal images): 1 μM, 30 min at 37 °C, live cells. The protocol: To first assess whether the library of fluorescent ligands (13a-h and 14h) can specifically label the NOPr, single time point confocal images of live FlpIn CHO cells stably expressing SNAP-NOPr were captured. Cells were incubated with fluorescent ligands 13a-h and 14h (1 μM) to assess the fluorescent ligand binding.
3 Single time point confocal images of live FlpIn CHO cells stably expressing SNAP-NOPr. Cells were labeled with SNAP-AF488 (cyan) to visualize SNAP-NOPr expression (a–d) and incubated for 30 min at 37 °C with fluorescent ligands 13e–h (1 μM) (magenta) to visualize fluorescent ligand binding (e-h).
For all experiments, live cell single time point confocal images were captured using a Zeiss Cell Discoverer 7 LSM 900 high-content automated confocal microscope. Two images per well were captured using a 10× objective and the Cy5 channel (650 λex, 673 λem), the AF488 (495λex, 520 λem) channel, and the CFP (433λex, 475 λem) channel. All cells were imaged in an imaging buffer containing (2 mM sodium pyruvate, 145 mM NaCl, 10 mM D-glucose, 5 mM KCl, 1 mM MgSO4·7H2O, 10 mM HEPES, 1.3 mM CaCl2 dihydrate, and 1.5 mM NaHCO3).
Stably expressing SNAP-NOPr FlpIn-CHO cells suspended in DMEM (D6421) (100 μL) were seeded (10,000 cells/well) into 96-well poly-D-lysine (PDL)-coated Greiner black polyester plates. Cells were incubated for 48 h at 37 °C and 5% CO2 prior to imaging.
Before measurement, the media were removed, and cells were washed with 90 μL of imaging buffer. Cells were then incubated with SNAP-AF488 (New England Biolabs) (0.5 μg·mL^–1) in imaging buffer for 30 min at 37 °C. After incubation, the SNAP-AF488 solution was aspirated and cells were rinsed twice with imaging buffer (90 μL). […] Cells were incubated for 30 min at 37 °C and 5% CO2 before the images were captured.

Experiment [2] has as its target T1, NOPr. In words: TR-FRET equilibrium saturation binding, Lumi4Tb-SNAP-NOPr CHO membranes. Background: Time-resolved FRET reads energy transfer from a long-lived donor to a nearby acceptor.
Description: The levels of specific binding (total – nonspecific) were calculated and used to determine the dissociation constant (K D) as a measure of affinity.
For 13g-h, the homogeneous TR-FRET (HTRF) ratio [(acceptor λem (665 nM)/donor λem (620 nM) × 10000)] is plotted against ligand concentration (nM) for the total binding (solid circle) and nonspecific binding (NSB) (hollow circle). […] For end point saturation binding assays, data represent the mean ± SEM of n = 3 experiments performed in duplicate, and for kinetic binding studies, all data represent the mean of n = 3 experiments.
All ligands were prepared in TR-FRET buffer, consisting of Hanks’ Balanced Salt Solution (Sigma-Aldrich H6648) (KCl 5 mM, KH2PO4 0.4 mM, NaHCO3 4 mM, NaCl 137 mM, Na2HPO4 0.3 mM), Pluronic-F127 (0.02% w/v), DMSO (1% v/v), and glucose (1 mg.mL^–1), adjusted to pH 7.4. Membrane aliquots were thawed on ice prior to use, and membrane suspensions [membrane (0.05 μg.μL^–1), Gpp­(NH)p (100 μM), and saponin (50 μg.mL^–1)] were prepared in TR-FRET buffer. […] Measurements were made in low-binding 384-well optiplates (PerkinElmer) on a PHERAstar (BMG Labtech) plate reader using the HTRF module [337 nm excitation with dual emission detection at 620 nm (terbium cryptate donor) and 665 nm emission (fluorescent ligand acceptor)] at a focal height of 11.4 mm. […]
Setting [3] is: IC50, antagonist mode, inhibition of EC80 concentration of N/OFQ, n = 4 in duplicate.
Where [4] appears, read: NOP IC50 (nM), supplementary csv, GPA assay antagonist mode.
[5] abbreviates: NOP pIC50 ± SEM, supplementary csv, GPA assay antagonist mode.
Where [6] appears, read: pIC50 ± SEM, antagonist mode, inhibition of EC80 concentration of N/OFQ, n = 4 in duplicate.
Where [7] appears, read: antagonist mode, inhibition of EC80 concentration of N/OFQ, n = 4 in duplicate, read-out: IC50 (converted).
The mark [8] stands for this setting: antagonist mode, inhibition of EC80 concentration of N/OFQ, n = 4 in duplicate, read-out: pIC50 ± SEM (converted).
Setting [9] is: supplementary csv, GPA assay antagonist mode, read-out: NOP IC50 (converted).
Where [10] appears, read: supplementary csv, GPA assay antagonist mode, read-out: NOP pIC50 ± SEM (converted).

T2 sequence (P41146 whole entry): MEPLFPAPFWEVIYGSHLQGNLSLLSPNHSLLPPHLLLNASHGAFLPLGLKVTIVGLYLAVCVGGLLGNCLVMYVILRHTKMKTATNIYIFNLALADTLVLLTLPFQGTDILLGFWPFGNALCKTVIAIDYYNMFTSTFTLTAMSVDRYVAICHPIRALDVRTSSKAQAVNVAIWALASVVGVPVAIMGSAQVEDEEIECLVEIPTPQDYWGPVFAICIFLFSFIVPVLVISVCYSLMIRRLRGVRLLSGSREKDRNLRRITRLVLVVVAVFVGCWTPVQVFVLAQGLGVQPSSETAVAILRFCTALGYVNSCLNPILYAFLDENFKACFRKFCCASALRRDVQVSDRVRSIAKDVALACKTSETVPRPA
T1 sequence (P41146 whole entry): as above

`CC(C)(C)OC(=O)NCCC(=O)N1CCC[C@@H]1C(=O)NCCCN1CCC2(CC1)OCc1ccccc12` [11b, tert-Butyl (R)-(3-(2-((3-(3H-Spiro[isobenzofuran-1,4′-piperidin]-1′-yl)propyl)carbamoyl)pyrrolidin-1-yl)-3-oxopropyl)carbamate]: the IC50 was 7800 nM at NOPr [1] (setting [3]), 7760 nM on NOPr [1] (setting [4]), 7760 nM on NOPr [1] (setting [5]) and 7940 nM on NOPr [1] (setting [6]).
As to `CC(C)(C)OC(=O)NCCOc1cccc(CN2CCC[C@@H]2C(=O)NCCCN2CCC3(CC2)OCc2ccccc23)c1` [11g, tert-Butyl (R)-(2-(3-((2-((3-(3H-Spiro[isobenzofuran-1,4′-piperidin]-1′-yl)propyl)carbamoyl)pyrrolidin-1-yl)methyl)phenoxy)ethyl)carbamate], the IC50 at NOPr [1] (setting [3]) was 20 nM; on NOPr [1] (setting [4]) it was 19.5 nM; at NOPr [1] (setting [5]), 19.5 nM; on NOPr [1] (setting [6]), 20 nM.
Take `CC(C)(C)OC(=O)NCCCCC(=O)N1CCC[C@@H]1C(=O)NCCCN1CCC2(CC1)OCc1ccccc12` [11d, tert-Butyl (R)-(5-(2-((3-(3H-Spiro[isobenzofuran-1,4′-piperidin]-1′-yl)propyl)carbamoyl)pyrrolidin-1-yl)-5-oxopentyl)carbamate]: the IC50 at NOPr [1] (setting [7]) is 1200 nM; on NOPr [1] (setting [8]), 1260 nM; at NOPr [1] (setting [9]), 1230 nM; at NOPr [1] (setting [10]), 1230 nM.
In the case of `CC(C)(C)OC(=O)NCCCC(=O)N1CCC[C@@H]1C(=O)NCCCN1CCC2(CC1)OCc1ccccc12` [11c, tert-Butyl (R)-(4-(2-((3-(3H-Spiro[isobenzofuran-1,4′-piperidin]-1′-yl)propyl)carbamoyl)pyrrolidin-1-yl)-4-oxobutyl)carbamate], the values for the IC50 at NOPr [1] (setting [7]), on NOPr [1] (setting [8]) and on NOPr [1] (setting [10]) were 4900 nM, 5010 nM and 4900 nM, respectively.
In the case of `CN1/C(=C/C=C/C=C/C2=[N+](CCCCCC(=O)NCCOc3cccc(C(=O)N4CCC[C@@H]4C(=O)NCCCN4CCC5(CC4)OCc4ccccc45)c3)c3ccc(S(=O)(=O)[O-])cc3C2(C)C)C(C)(C)c2cc(S(=O)(=O)[O-])ccc21.[K+]` [13e, Potassium 1-(6-((2-(3-((R)-2-((3-(3H-Spiro[isobenzofuran-1,4′-piperidin]-1′-yl)propyl)carbamoyl)pyrrolidine-1-carbonyl)phenoxy)ethyl)amino)-6-oxohexyl)-3,3-dimethyl-2-((1E,3E)-5-((E)-1,3,3-trimethyl-5-sulfonatoindolin-2-ylidene)penta-1,3-dien-1-yl)-3H-indol-1-ium-5-sulfonate], the “fluorescent ligand binding (confocal images)” value (from here on “fluorescent ligand binding”) on SNAP-NOPr was “Binding was observed”.
Consider `CC(C)(C)OC(=O)NCCOc1ccc(CN2CCC[C@@H]2C(=O)NCCCN2CCC3(CC2)OCc2ccccc23)cc1` [11h, tert-Butyl (R)-(2-(4-((2-((3-(3H-Spiro[isobenzofuran-1,4′-piperidin]-1′-yl)propyl)carbamoyl)pyrrolidin-1-yl)methyl)phenoxy)ethyl)carbamate], for which the figures for the IC50 at NOPr [1] (setting [3]), on NOPr [1] (setting [5]) and on NOPr [1] (setting [6]) were 5.5 nM, 5.5 nM and 5.01 nM, respectively.
`CN1/C(=C/C=C/C=C/C2=[N+](CCCCCC(=O)NCCOc3ccc(C(=O)N4CCC[C@@H]4C(=O)NCCCN4CCC5(CC4)OCc4ccccc45)cc3)c3ccc(S(=O)(=O)[O-])cc3C2(C)C)C(C)(C)c2cc(S(=O)(=O)[O-])ccc21.[K+]` [13f, Potassium 1-(6-((2-(4-((R)-2-((3-(3H-Spiro[isobenzofuran-1,4′-piperidin]-1′-yl)propyl)carbamoyl)pyrrolidine-1-carbonyl)phenoxy)ethyl)amino)-6-oxohexyl)-3,3-dimethyl-2-((1E,3E)-5-((E)-1,3,3-trimethyl-5-sulfonatoindolin-2-ylidene)penta-1,3-dien-1-yl)-3H-indol-1-ium-5-sulfonate]: the “fluorescent ligand binding” value at SNAP-NOPr is recorded as “Binding was observed”.
`CC(C)(C)OC(=O)NCCOc1cccc(C(=O)N2CCC[C@@H]2C(=O)NCCCN2CCC3(CC2)OCc2ccccc23)c1` [11e, tert-Butyl (R)-(2-(3-(2-((3-(3H-Spiro[isobenzofuran-1,4′-piperidin]-1′-yl)propyl)carbamoyl)pyrrolidine-1-carbonyl)phenoxy)ethyl)carbamate]: the IC50 on NOPr [1] (setting [7]) was 370 nM; on NOPr [1] (setting [8]), 398 nM; on NOPr [1] (setting [9]), 372 nM; on NOPr [1] (setting [10]) it was 372 nM.
Turning to `CC(C)(C)OC(=O)NCCOc1ccc(C(=O)N2CCC[C@@H]2C(=O)NCCCN2CCC3(CC2)OCc2ccccc23)cc1` [11f, tert-Butyl (R)-(2-(4-(2-((3-(3H-Spiro[isobenzofuran-1,4′-piperidin]-1′-yl)propyl)carbamoyl)pyrrolidine-1-carbonyl)phenoxy)ethyl)carbamate], the IC50 was 270 nM at NOPr [1] (setting [7]), 251 nM at NOPr [1] (setting [8]), 269 nM at NOPr [1] (setting [9]) and 269 nM on NOPr [1] (setting [10]).
On to `CN1/C(=C/C=C/C=C/C2=[N+](CCCCCC(=O)NCCOc3ccc(CN4CCC[C@@H]4C(=O)NCCCN4CCC5(CC4)OCc4ccccc45)cc3)c3ccc(S(=O)(=O)[O-])cc3C2(C)C)C(C)(C)c2cc(S(=O)(=O)[O-])ccc21.[K+]` [13h, Potassium 1-(6-((2-(4-(((R)-2-((3-(3H-Spiro[isobenzofuran-1,4′-piperidin]-1′-yl)propyl)carbamoyl)pyrrolidin-1-yl)methyl)phenoxy)ethyl)amino)-6-oxohexyl)-3,3-dimethyl-2-((1E,3E)-5-((E)-1,3,3-trimethyl-5-sulfonatoindolin-2-ylidene)penta-1,3-dien-1-yl)-3H-indol-1-ium-5-sulfonate], for which the “fluorescent ligand binding” value on SNAP-NOPr is on record as “more pronounced binding”. In addition, the “reduction in inhibitory potency from N-Boc congener to fluorescent ligand” value at NOPr [1] was at least 20 fold. Besides, the “binding behaviour at the highest concentration tested” value on NOPr [2] (400 nM) is given as “saturable binding with minimal nonspecific binding”. Moreover, on NOPr [2] (saturation KD), the “higher affinity of 13h than 13g” value was determined as 5 fold.
With `C[C@H](NC(=O)OC(C)(C)C)C(=O)N1CCC[C@@H]1C(=O)NCCCN1CCC2(CC1)OCc1ccccc12` [11a, tert-Butyl ((S)-1-((R)-2-((3-(3H-Spiro[isobenzofuran-1,4′-piperidin]-1′-yl)propyl)carbamoyl)pyrrolidin-1-yl)-1-oxopropan-2-yl)carbamate], the results for the IC50 on NOPr [1] (setting [3]), on NOPr [1] (setting [5]) and at NOPr [1] (setting [6]) were 11700 nM, 11700 nM and 12600 nM, respectively.
Consider `O=C(CCCCCNC(=O)COc1ccc(/C=C/C2=[N+]3C(=Cc4ccc(-c5cccs5)n4[B-]3(F)F)C=C2)cc1)NCCOc1ccc(CN2CCC[C@@H]2C(=O)NCCCN2CCC3(CC2)OCc2ccccc23)cc1` [14h, (R,E)-N-(3-(3H-Spiro[isobenzofuran-1,4′-piperidin]-1′-yl)propyl)-1-(4-(2-(6-(2-(4-(2-(5,5-Difluoro-7-(thiophen-2-yl)-5H-4λ^4,5λ^4-dipyrrolo[1,2-c:2′,1′-f][1,3,2]diazaborinin-3-yl)vinyl)phenoxy)acetamido)hexanamido)ethoxy)benzyl)pyrrolidine-2-carboxamide], for which the “specificity of labeling: displacement by SB-612111 / nonspecific labeling” value on SNAP-NOPr (1 μM ligand, SB-612111 1 μM) is “significant nonspecific labeling”. For the same molecule, the “reduction in inhibitory potency from N-Boc congener to fluorescent ligand” value on NOPr [1] is on record as at least 20 fold. In addition, the “functional agonism at the NOPr” value on NOPr [1] (agonist mode, absence of N/OFQ) is “no functional agonism”. The IC50 at NOPr [1] (setting [7]) is 130 nM; at NOPr [1] (setting [8]), 126 nM; at NOPr [1] (setting [9]) it was 126 nM.
